Data on 9 molecules can be found in patent US6967213B2, “Isothiazole derivatives, process for the preparation thereof, and pharmaceutical composition including the same” (CJ Corp., priority 2003, dated 2005).

The target of one test is T1, cyclooxygenase-2 (Mus musculus, UniProt Q05769).
T1 construct: After seeding 2×10^6 cells of Raw 264.7 cell (obtained from Korean cell line bank, Deposit No. 40071) into each of 12-well plates; endogenous in cells; host or cells: Raw 264.7 (Korean cell line bank, Deposit No. 40071), aspirin-pretreated, induced with interferon and LPS
T1 sequence (Q05769 18-604): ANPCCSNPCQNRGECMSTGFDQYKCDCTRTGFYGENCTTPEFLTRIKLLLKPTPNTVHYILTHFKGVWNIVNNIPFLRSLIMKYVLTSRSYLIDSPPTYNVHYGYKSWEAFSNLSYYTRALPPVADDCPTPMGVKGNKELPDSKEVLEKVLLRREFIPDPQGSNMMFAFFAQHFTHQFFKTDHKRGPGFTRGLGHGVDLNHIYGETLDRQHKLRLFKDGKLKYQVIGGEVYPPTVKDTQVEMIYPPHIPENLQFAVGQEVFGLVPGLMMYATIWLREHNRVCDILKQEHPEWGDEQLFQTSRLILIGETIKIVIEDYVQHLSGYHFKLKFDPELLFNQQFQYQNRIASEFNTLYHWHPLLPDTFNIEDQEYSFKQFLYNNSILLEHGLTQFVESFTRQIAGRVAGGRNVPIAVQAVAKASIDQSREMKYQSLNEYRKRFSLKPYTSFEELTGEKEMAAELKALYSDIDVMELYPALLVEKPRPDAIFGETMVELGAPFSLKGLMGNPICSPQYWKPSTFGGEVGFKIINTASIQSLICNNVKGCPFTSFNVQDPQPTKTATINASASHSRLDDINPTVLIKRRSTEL
In words: Inhibitive effects against cyclooxygenase-2 using Raw 264.7 (interferon/LPS-induced PGE2, EIA). The class given is cell-based. The note with it: Raw 264.7 cells, interferon + LPS, 18 hours. The method, then: In addition, the samples were treated with 100 units/ml of interferon ? and 100 ng/ml of lipopolysaccharide(LPS), and cultured for 18 hours. Then, the media was transferred to other test tubes and PGE 2 was quantitated by using EIA kit (Cayman Chemicals).
The % inhibition was calculated as follows, and the results were described in Table 1.
% inhibition={(PGE2 concentration compensated with interferon ? and LPS-PGE2 concentration compensated with analysis sample)/(PGE2 concentration compensated with interferon ? and LPS)}×100

Another test has as its target T2, cyclooxygenase-1 (Homo sapiens, UniProt P23219).
T2 construct: A cultured U-937 (humane lymphoma cell with Deposit No. 21593, obtained from Korean cell line bank) was centrifuged to collect the pellet; endogenous in cells; host or cells: U-937 (Korean cell line bank, Deposit No. 21593)
In words: Inhibitive effects against cyclooxygenase-1 using U-937 (PGE2 quantitation). The test is classed as cell-based. The note with it: U-937 cells, arachidonic acid substrate. As for the experimental part: Then, the pellet was diluted with 1×HBSS(Hank's balanced salt solution) at the concentration of 1×10^6 cells/ml, and 1 ml of them was transferred into each of 12-well plates.
Arachidonic acid as a substrate was dissolved in ethanol to prepare a stock solution with a concentration of 10 mM, followed by diluting with 1×HBSS to prepare the solution of 1 mM. 10 μl of 1 mM Arachidonic acid solution was added to each of the treated wells and the mixture was cultured at 37° C. in CO2 incubator for 30 minutes. The cell solution of each well was collected in the centrifuge tube and centrifuged at 4° C., for 5 minutes at 10,000 rpm. As PGE2 existed in the supernatant separated from collected cell, the concentration of PGE2 was quantitated by using monoclonal kit from Cayman Chemicals, and the concentration of samples and DMSO vehicle were compared to estimate the inhibition ratio (%) of each compound against cyclooxygenase-1. Ultimately, the inhibition effect against the cyclooxygenase-1 enzyme was obtained from the result.

The structures appear in SMILES notation.

T2 sequence (P23219 24-599): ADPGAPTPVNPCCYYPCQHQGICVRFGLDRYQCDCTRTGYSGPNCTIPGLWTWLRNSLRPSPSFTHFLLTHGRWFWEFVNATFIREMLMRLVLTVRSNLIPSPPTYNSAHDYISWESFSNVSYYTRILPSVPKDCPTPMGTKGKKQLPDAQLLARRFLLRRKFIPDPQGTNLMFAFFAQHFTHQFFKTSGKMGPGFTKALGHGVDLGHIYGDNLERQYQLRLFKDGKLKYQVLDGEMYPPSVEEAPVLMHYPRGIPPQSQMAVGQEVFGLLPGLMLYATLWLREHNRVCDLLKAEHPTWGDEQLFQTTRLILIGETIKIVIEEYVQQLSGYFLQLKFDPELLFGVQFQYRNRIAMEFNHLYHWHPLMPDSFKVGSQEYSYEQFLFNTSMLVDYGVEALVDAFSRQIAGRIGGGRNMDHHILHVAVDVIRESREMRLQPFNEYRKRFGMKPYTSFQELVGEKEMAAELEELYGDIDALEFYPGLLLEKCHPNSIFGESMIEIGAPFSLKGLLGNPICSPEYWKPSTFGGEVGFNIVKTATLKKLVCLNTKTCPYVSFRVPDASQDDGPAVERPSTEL

Take `COc1ccc(-c2nsc(C)c2-c2ccc(S(C)(=O)=O)cc2)cc1` [Example 8, 3-(4-methoxyphenyl)-4-(4-methanesulfonylphenyl)-5-methyl-isothiazole]: on cyclooxygenase-2, the “Inhibitory effects of cyclooxygenase (COX): COX-2 (30 nM)” value (“Inhibitory effects … (30 nM)” for short) stood at 76.4 % inhibition. Further, the “Inhibitory effects of cyclooxygenase (COX): COX-1 (10 μM)” value (shortened to “Inhibitory effects … (10 μM)”) at cyclooxygenase-1 worked out at 80.1 % inhibition.

For `Cc1snc(-c2ccc(F)cc2)c1-c1ccc(S(N)(=O)=O)cc1` [Example 5, 4-[3-(4-fluorophenyl)-5-methyl-isothiazole-4-yl]-benzenesulfonamide], the “Inhibitory effects … (30 nM)” value at cyclooxygenase-2 is given as 72.3 % inhibition. For the same molecule, the “Inhibitory effects … (10 μM)” value at cyclooxygenase-1 was found to be 77.8 % inhibition.

Regarding `Cc1snc(-c2ccc(Br)cc2)c1-c1ccc(S(C)(=O)=O)cc1` [Example 7, 3-(4-bromophenyl)-4-(4-methanesulfonylphenyl)-5-methyl-isothiazole], on cyclooxygenase-2, the “Inhibitory effects … (30 nM)” value stood at 65.6 % inhibition. Further, at cyclooxygenase-1, the “Inhibitory effects … (10 μM)” value worked out at 45.7 % inhibition.

As to `Cc1snc(-c2ccc(Br)cc2)c1-c1ccc(S(N)(=O)=O)cc1` [Example 3, 4-[3-(4-bromophenyl)-5-methyl-isothiazole-4-yl]-benzenesulfonamide], the “Inhibitory effects … (30 nM)” value at cyclooxygenase-2 worked out at 58.5 % inhibition. Further, on cyclooxygenase-1, the “Inhibitory effects … (10 μM)” value came out at 38.8 % inhibition.

Turning to `COc1ccc(-c2nsc(C)c2-c2ccc(S(N)(=O)=O)cc2)cc1` [Example 4, 4-[3-(4-methoxyphenyl)-5-methyl-isothiazole-4-yl]-benzenesulfonamide], at cyclooxygenase-2, the “Inhibitory effects … (30 nM)” value was 67.7 % inhibition. Further, at cyclooxygenase-1, the “Inhibitory effects … (10 μM)” value is on record as 79.5 % inhibition.

Consider `Cc1snc(-c2ccccc2)c1-c1ccc(S(N)(=O)=O)cc1` [Example 2, 4-(5-methyl-3-phenyl-isothiazole-4-yl)-benzenesulfonamide], for which, on cyclooxygenase-2, the “Inhibitory effects … (30 nM)” value was 60.2 % inhibition. In addition, the “Inhibitory effects … (10 μM)” value on cyclooxygenase-1 was found to be 35.5 % inhibition.

Turning to `Cc1snc(-c2ccc(S(C)(=O)=O)cc2)c1-c1ccc(F)cc1` [Example 1, 4-(4-fluorophenyl)-3-(4-methanesulfonyl)-5-methyl-isothiazole], the “Inhibitory effects … (30 nM)” value on cyclooxygenase-2 is on record as 63.7 % inhibition. Also, the “Inhibitory effects … (10 μM)” value at cyclooxygenase-1 was 29.8 % inhibition.

For `Cc1snc(-c2ccccc2)c1-c1ccc(S(C)(=O)=O)cc1` [Example 6, 4-(4-methanesulfonylphenyl)-5-methyl-3-phenyl-isothiazole], the “Inhibitory effects … (30 nM)” value at cyclooxygenase-2 was 69.0 % inhibition. Also, the “Inhibitory effects … (10 μM)” value on cyclooxygenase-1 was 56.4 % inhibition.

With `Cc1snc(-c2ccc(F)cc2)c1-c1ccc(S(C)(=O)=O)cc1` [Example 9, 3-(4-fluorophenyl)-4-(4-methanesulfonyl)-5-methyl-isothiazole], at cyclooxygenase-2, the “Inhibitory effects … (30 nM)” value was found to be 65.1 % inhibition. Further, the “Inhibitory effects … (10 μM)” value at cyclooxygenase-1 is given as 67.2 % inhibition.
